These results are taken from ChEMBL document CHEMBL5214949, “Synthesis and biological evaluation of (4-hydroxy-2-(substitued sulfonamido)pyrimidine-5-carbonyl)glycines as oral erythropoietin secretagogues” (Bioorg Med Chem Lett, 2022).

The source made the active and inactive calls. The calls are words filed in the database; no cut-off is given here.

The nature of data set [1]: Cytotoxicity against human Hep3B cells assessed as cell viability at 12.5 ug/ml measured by MTT assay. The data set is classed as toxicity, cell-based, Hep 3B2. The note with it: at 12.5 µg/mL, read-out: Activity.
A further data set has as its system Mus musculus. As to the kind of experiment: In vivo inhibition of PHD2 in ICR mouse assessed as increase in serum EPO production at 10 mg/kg, po and measured after 4 hrs by ELISA. The data set is classed as functional, organism-based.
Another data set deals with Egl nine homolog 1 (Homo sapiens, UniProt Q9GZT9). As to the kind of experiment: Inhibition of PHD2 in human Hep3B cells assessed as increase in EPO production measured after 24 hrs by ELISA. Type of data set: cell-based. In general terms: An ELISA detects its analyte on a solid surface through an enzyme-linked reagent.
Sequence of Egl nine homolog 1 (Q9GZT9 whole entry): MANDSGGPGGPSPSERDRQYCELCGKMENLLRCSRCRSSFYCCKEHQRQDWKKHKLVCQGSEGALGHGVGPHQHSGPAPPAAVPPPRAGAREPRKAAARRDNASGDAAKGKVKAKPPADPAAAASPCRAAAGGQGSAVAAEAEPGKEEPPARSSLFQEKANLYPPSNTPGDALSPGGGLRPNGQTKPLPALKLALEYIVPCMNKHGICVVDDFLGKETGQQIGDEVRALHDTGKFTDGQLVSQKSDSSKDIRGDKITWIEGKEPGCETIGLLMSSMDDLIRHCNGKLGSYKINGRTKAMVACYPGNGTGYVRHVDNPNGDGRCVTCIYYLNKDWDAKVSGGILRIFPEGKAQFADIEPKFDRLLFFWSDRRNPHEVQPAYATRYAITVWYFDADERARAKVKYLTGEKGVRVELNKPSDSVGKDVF
The nature of data set [2]: Cytotoxicity against human Hep3B cells assessed as cell viability at 100 ug/ml measured by MTT assay. Type of data set: toxicity, cell-based, Hep 3B2. The note with it: at 100 µg/mL, read-out: Activity. In general terms: Tetrazolium assays rely on reduction of a dye to a coloured formazan, in cell work by metabolically active cells.

Usually EC50 stands for the concentration that produces a half-maximal response. `O=C(O)CNC(=O)c1cnc(NS(=O)(=O)c2cccc(Cl)c2)nc1O`: the viability at 12.5 ug/ml in data set [1] was determined as 95.7%. Also, in the data set on Mus musculus, the inhibition entry is “Active”. Also, the concentration for a half-maximal effect (EC50) at Egl nine homolog 1 is 1.25 µM. For the same compound, the viability at 100 ug/ml in data set [2] stood at 84.4%.

As for `O=C(O)CNC(=O)c1cnc(NS(=O)(=O)c2ccc(-c3ccccc3)cc2)nc1O`, the viability at 12.5 ug/ml in data set [1] came out at 91.9%. In the data set on Mus musculus, the inhibition entry is “Active”. For the same compound, the viability at 100 ug/ml in data set [2] was determined as 73.4%.

For the compound `O=C(O)CNC(=O)c1cnc(NS(=O)(=O)c2ccc(C(F)(F)F)cc2)nc1O`, in data set [1], the viability at 12.5 ug/ml stood at 97.2%. Moreover, the inhibition result in the data set on Mus musculus was “Active”. Moreover, the viability at 100 ug/ml in data set [2] worked out at 95.8%.

For `Cc1nc(C(=O)NCC(=O)O)c(O)c2ccc(Oc3ccccc3)cc12` [ROXADUSTAT], the viability at 12.5 ug/ml in data set [1] came out at 89.9%. The inhibition result with Mus musculus was “Active”. Moreover, in data set [2], the viability at 100 ug/ml came out at 58.5%.

`Cc1ccc(S(=O)(=O)Nc2ncc(C(=O)NCC(=O)O)c(O)n2)cc1`: the viability at 12.5 ug/ml in data set [1] worked out at 98.5%. Moreover, the half-maximal effective concentration (EC50) at Egl nine homolog 1 turned out to be 9.27 µM. Also, the viability at 100 ug/ml in data set [2] was 102%.

As to `O=C(O)CNC(=O)c1cnc(NS(=O)(=O)Cc2ccccc2)nc1O`, the viability at 12.5 ug/ml in data set [1] stood at 90%. The inhibition result in the data set on Mus musculus was “Active”. In addition, the viability at 100 ug/ml in data set [2] amounted to 87.5%.

As to `O=C(O)CNC(=O)c1cnc(NS(=O)(=O)c2ccccc2)nc1O`, the inhibition result with Mus musculus was “Active”.

In the case of `O=C(O)CNC(=O)c1cnc(NS(=O)(=O)c2ccc(Br)cc2)nc1O`, the viability at 12.5 ug/ml in data set [1] stood at 100%. On Egl nine homolog 1, the EC50 was 7.97 µM. For the same compound, the viability at 100 ug/ml in data set [2] was determined as 116%.

For the compound `O=C(O)CNC(=O)c1cnc(NS(=O)(=O)c2ccc(Cl)cc2)nc1O`, the viability at 12.5 ug/ml in data set [1] is 85.5%. Moreover, in data set [2], the viability at 100 ug/ml came to 93.4%.

Consider `COc1ccc(S(=O)(=O)Nc2ncc(C(=O)NCC(=O)O)c(O)n2)cc1`, for which, in data set [1], the viability at 12.5 ug/ml was 105%. Further, the inhibition entry in the data set with Mus musculus is “Active”. Besides, the viability at 100 ug/ml in data set [2] stood at 110%.

`O=C(O)CNC(=O)c1cnc(NS(=O)(=O)c2ccc(Cl)c(Cl)c2)nc1O`: in data set [1], the viability at 12.5 ug/ml amounted to 89.5%. Further, the viability at 100 ug/ml in data set [2] was 90.9%.
